Results taken from patent US20250002475A1 (EPICS THERAPEUTICS, priority 2023, published 2025).

Legend:
[1] = test system: Kasumi-1 cells; experiment: Kasumi-1 cellular viability assay (ATP-Lite, 72 h); assay type: cell-based; conditions: Homo sapiens, ATP-Lite luminescence, % viability relative to DMSO
Summary of the method: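 Kasumi-1 AML cells, 15000/well in RPMI-1640 with 10% FBS, were exposed to compound titrations (0.1% final DMSO) for 72 h at 37 °C, 5% CO2. ATP-Lite One Step luminescence gave % viability versus DMSO control, and IC50 came from the concentration-response.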

[2] = biological target: T1, recombinant METTL3/METTL14 complex (Homo sapiens, UniProt Q86U44); experiment: METTL3/14 Scintillation Proximity Assay (SPA), RNA methyltransferase activity; assay type: biochemical; conditions: 5.31 nM METTL3/14 complex, 250 nM RNA substrate, 1 μM 3H-SAM, 90 min; for compounds marked * best of the two separated forms
T1 construct: purchased Active Motif 311970; host or cells: Sf9 cells
T1 sequence (Q86U44 whole entry): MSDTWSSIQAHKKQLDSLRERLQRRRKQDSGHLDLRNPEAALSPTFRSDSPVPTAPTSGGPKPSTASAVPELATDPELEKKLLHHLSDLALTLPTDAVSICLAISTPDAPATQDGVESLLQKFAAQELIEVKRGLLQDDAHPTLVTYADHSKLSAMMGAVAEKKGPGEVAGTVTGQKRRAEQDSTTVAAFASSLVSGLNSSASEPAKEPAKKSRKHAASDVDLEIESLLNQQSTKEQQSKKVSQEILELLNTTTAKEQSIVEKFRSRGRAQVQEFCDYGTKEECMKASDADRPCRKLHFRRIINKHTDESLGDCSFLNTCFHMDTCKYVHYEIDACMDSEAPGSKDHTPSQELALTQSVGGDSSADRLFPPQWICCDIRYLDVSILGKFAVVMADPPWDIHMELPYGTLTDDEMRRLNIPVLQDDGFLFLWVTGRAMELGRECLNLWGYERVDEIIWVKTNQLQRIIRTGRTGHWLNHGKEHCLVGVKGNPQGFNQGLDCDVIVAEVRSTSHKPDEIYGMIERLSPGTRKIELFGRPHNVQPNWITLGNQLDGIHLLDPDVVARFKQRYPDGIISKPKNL
T1 sequence (Q9HCE5 whole entry partner): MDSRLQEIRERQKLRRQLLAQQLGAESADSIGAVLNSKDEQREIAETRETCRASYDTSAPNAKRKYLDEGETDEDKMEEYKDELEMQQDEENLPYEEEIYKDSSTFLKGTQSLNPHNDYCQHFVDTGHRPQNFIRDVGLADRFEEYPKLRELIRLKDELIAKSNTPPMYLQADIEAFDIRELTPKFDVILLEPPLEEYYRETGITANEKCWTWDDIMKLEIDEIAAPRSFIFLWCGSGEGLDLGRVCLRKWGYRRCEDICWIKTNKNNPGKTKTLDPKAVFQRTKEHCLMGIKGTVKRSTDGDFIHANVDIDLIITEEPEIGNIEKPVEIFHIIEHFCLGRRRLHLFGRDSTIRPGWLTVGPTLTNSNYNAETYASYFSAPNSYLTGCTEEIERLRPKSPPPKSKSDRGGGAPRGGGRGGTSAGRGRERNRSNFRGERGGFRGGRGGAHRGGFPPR

[3] = test system: Caov-3 cells; experiment: Caov-3 cellular viability assay (ATP-Lite, 72 h); assay type: cell-based; conditions: Homo sapiens, ATP-Lite luminescence, % viability relative to DMSO
Summary of the method: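 10000 cells/well treated 72 h at 37 °C, 5% CO2, in RPMI-1640 with 10% FBS and 0.1% DMSO final. Viability by ATP-Lite One Step luminescence. Expressed as % of DMSO control, with IC50 from each compound's concentration-response curve.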

Structure (SMILES) | IC50 [1] | IC50 [2] | IC50 [3]
CN(C)c1cncc(-c2cn(C3(c4ccc(N5CCC[C@@H](NCC6CC6)C5)cn4)COC3)nn2)c1 [Compound 184, (R)-5-(1-(3-(5-(3-((cyclopropylmethyl)amino)piperidin-1-yl)pyridin-2-yl)oxetan-3-yl)-1H-1,2,3-triazol-4-yl)-N,N-dimethylpyridin-3-amine] | ≤ 500 nM | ≤ 50 nM | ≤ 500 nM
CN(C)c1cncc(-c2cn(Cc3ccc(N4CCC[C@@H](NCC5CCC5)C4)cn3)nn2)c1 [Compound 139, (R)-5-(1-((5-(3-((cyclobutylmethyl)amino)piperidin-1-yl)pyridin-2-yl)methyl)-1H-1,2,3-triazol-4-yl)-N,N-dimethylpyridin-3-amine] | ≤ 500 nM | ≤ 50 nM | ≤ 500 nM
CC(n1cnc(-c2cc(N(C)C)cnn2)c1)n1ccc(N2CCC[C@@H](NCC3CC3)C2)cc1=O (single isomer, unassigned) [Compound 243] | 500 to 5000 nM | ≤ 50 nM | 500 to 5000 nM
CC(n1cc(-c2cccn3cncc23)nn1)n1ccc(N2CCC[C@@H](NCC3CCC3)C2)cc1=O (single isomer, unassigned) [Compound 124] | > 5000 nM | ≤ 50 nM | 500 to 5000 nM
COc1cc(-c2cn(Cc3ccc(N4CCC[C@@H](NCC(C)(C)C)C4)nn3)nn2)c2cn[nH]c2c1 [Compound 032, (R)-1-(6-((4-(6-methoxy-1H-indazol-4-yl)-1H-1,2,3-triazol-1-yl)methyl)pyridazin-3-yl)-N-neopentylpiperidin-3-amine] | 500 to 5000 nM | ≤ 50 nM | ≤ 500 nM
COc1cncc(-c2cn(Cc3ccc(N4CCC[C@@H](NCC5CCC5)C4)cc3)nn2)c1 [Compound 068, (R)-N-(cyclobutylmethyl)-1-(4-((4-(5-methoxypyridin-3-yl)-1H-1,2,3-triazol-1-yl)methyl)phenyl) piperidin-3-amine] | 500 to 5000 nM | ≤ 50 nM | 500 to 5000 nM
c1ncc(C2CC2)cc1-c1cn(C2(c3ccc(N4CCC[C@@H](NC5CCC5)C4)cn3)COC2)nn1 [Compound 334, (R)-N-cyclobutyl-1-(6-(3-(4-(5-cyclopropylpyridin-3-yl)-1H-1,2,3-triazol-1-yl)oxetan-3-yl)pyridin-3-yl)piperidin-3-amine] | ≤ 500 nM | ≤ 50 nM | ≤ 500 nM
CC(C)(c1ccc(N2CCC[C@@H](NCC3CC3)C2)cn1)c1nnc(-c2cncc(N3CCCC3)n2)s1 [Compound 364, (R)-N-(cyclopropylmethyl)-1-(6-(2-(5-(6-(pyrrolidin-1-yl)pyrazin-2-yl)-1,3,4-thiadiazol-2-yl)propan-2-yl)pyridin-3-yl)piperidin-3-amine] | ≤ 500 nM | ≤ 50 nM | ≤ 500 nM
c1cc2cc(-c3cn(Cc4ccc(N5CCC[C@@H](NCC6CCC6)C5)nn4)nn3)cnc2[nH]1 [Compound 009, (R)-1-(6-((4-(1H-pyrrolo[2,3-b]pyridin-5-yl)-1H-1,2,3-triazol-1-yl)methyl)pyridazin-3-yl)-N-(cyclobutylmethyl)piperidin-3-amine] | 500 to 5000 nM | ≤ 50 nM | 500 to 5000 nM
CC(n1cc(-c2cncc(N3CC[C@H](C)C3)n2)nn1)n1ccc(N2CCC[C@@H](NCC3CC3)C2)cc1=O (single isomer, unassigned) [Compound 240] | ≤ 500 nM | ≤ 50 nM | ≤ 500 nM
COc1cncc(-c2cn(C(C)c3ccc(N4CCC[C@@H](NCC5CCC5)C4)cn3)nn2)c1 (single isomer, unassigned) [Compound 073] | 500 to 5000 nM | ≤ 50 nM | 500 to 5000 nM
CC(n1cc(-c2cncc(N3CCN(C)CC3)c2)nn1)n1ccc(N2CCC[C@@H](NCC3CCC3)C2)cc1=O (single isomer, unassigned) [Compound 168] | 500 to 5000 nM | ≤ 50 nM | ≤ 500 nM
CC(c1ccc(N2CCC[C@@H](NCC3CC3)C2)nn1)n1cc(-c2cncc(N3CCCC3)n2)nn1 (single isomer, unassigned) [Compound 309] | ≤ 500 nM | ≤ 50 nM | ≤ 500 nM
